US20010027248A1, “Novel receptor” (SmithKline Beecham p.l.c., priority 1994, published 2001)

test system: novel receptor; assay: Binding of known anticonvulsant compounds to the novel receptor; details: not given
Excerpt: Alternatively, the binding affinities of non-radio-labelled test compounds may be established by measuring the amount of displacement of a radio-labelled compound which is known to bind to the receptor such as compound (A) and (B) and other compounds mentioned or covered by the aforementioned patents or applications, using conventional techniques.

SMILES | binding to the novel receptor
O=C1NC(=O)C(c2ccccc2)(c2ccccc2)N1 [phenytoin] | do not bind
Nc1nnc(-c2cccc(Cl)c2Cl)c(N)n1 [lamotrigine] | do not bind
NC(=O)N1c2ccccc2C=Cc2ccccc21 [carbamazepine] | do not bind
CCCC(C)C1(CC)C(=O)NC(=O)NC1=O (stereo not drawn) [pentobarbitone] | do not bind
NCC1(CC(=O)O)CCCCC1 [gabapentin] | do not bind
CCC1(C)CC(=O)NC1=O (stereo not drawn) [ethosuximide] | do not bind
C=CC(N)CCC(=O)O (stereo not drawn) [vigabatrin] | do not bind
CN1C(=O)CN=C(c2ccccc2)c2cc(Cl)ccc21 [diazepam] | do not bind

target: novel receptor (rat forebrain tissue); assay: Radioligand saturation binding to the novel receptor in rat forebrain tissue homogenate; details: calculated from specific binding over a range of radioligand concentrations, read-out: Kd (dissociation constant)
Description: Adult male Wistar rats were killed and brains removed by dissection. Whole forebrain tissue was dissected out and homogenised in a buffered aqueous medium. The homogenised tissue was washed by centrifugation and resuspended in the same buffer. After centrifugation the resuspended tissue was either used fresh or stored frozen for periods of up to 3 months or more before use.
Aliquot of tissue prepared as above at a concentration of 1-10 mg protein/ml were mixed with aliquots of [^3H]-compound A dissolved in buffered medium ([…] HEPES, pH7.4). The final concentration of [^3H] compound A in the mixture was in the range of 20-50 nM. The mixture was incubated at room temperature for about 1 hour. [^3H]-compound A bound to the tissue was then separated from unbound [^3H]-compound A by filtration. This filtration was through Whatman glass fibre filters (GF/B or GF/C). The filters were then washed rapidly with ice-cold buffered medium (50 mM HEPES, pH7.4). The amount of radioactivity bound to the tissue trapped on the filters was measured by addition of liquid scintillation cocktail filters followed by counting in a liquid scintillation counter. […]

SMILES | Kd
CC(=O)c1ccc2c(c1)[C@H](NC(=O)c1ccc(F)cc1)[C@@H](O)C(C)(C)O2 [compound A, trans-(+)-6-Acetyl-4S-(4-fluorobenzolamino)-3,4-dihydro-2,2-dimethyl-2H-1-benzopyran-3R-ol] | 40 nM
